Measurements published in patent publication US7402610B2, “Carbonyl compound containing long-chain branched alkyl group” (Idemitsu Kosan Co., Ltd., priority 2004, dated 2008).

Key:
Format in all cases: physicochemical
[1] = Pour point, JIS K2269
Protocol: The pour point of 3-octyl-tridecanoic acid was measured in accordance with JIS K2269. The pour point was determined to be −37° C. On the other hand, the pour point of a similar compound isostearic acid (2-n-heptylundecanoic acid) was −20° C. (“14303 Chemical Products”, The Chemical Daily Co., Ltd.). Another similar compound 2-octyldodecanoic acid was a solid having a melting point of 35° C.
The pour point which indicates the characteristics of the ester of the invention was measured in accordance with JIS K2269.

[2] = Low temperature fluidity on cooling; settings: cooled to −20° C.
[3] = Oxidation stability test, JIS K2514, kinematic viscosity before and after heating; settings: for Change in kinematic viscosity (at 40° C.) / Change in kinematic viscosity (at 100° C.): after/before heating at 140° C. for 24 hours
Protocol: The oxidation stability of the above synthesized triester was tested and the viscosity before and after testing was measured. The oxidation stability test was conducted in accordance with JIS K2514, wherein the kinematic viscosity was measured at 40° C. and 100° C. after heating for 24 hours at 140° C. in the presence of copper and steel catalysts. The compounds showing a small change (increase) in kinematic viscosity were regarded as excelling in oxidation stability.

[4] = Loss on heat (plasticizer evaluation), JIS K6751-4; settings: heating at 125° C. for three hours
Protocol: As the plasticizer evaluation, loss on heat was evaluated. In accordance with JIS K6751-4, the decrease in amount after heating at 125° C. for three hours was used as the heating loss.

[5] = after heating at 140° C. for 24 hours, copper and steel catalysts

Fluidity when cooled [2]	Decrease in amount after heating (%) [4] [%]	Compound	Pour point [1]	Kinematic viscosity at 40° C. [3, 5] [mm^2/s]	Kinematic viscosity at 100° C. [3, 5] [mm^2/s]	Change in kinematic viscosity (at 40° C.) [3]	Change in kinematic viscosity (at 100° C.) [3]	Kinematic viscosity at 40° C. ([3]; before heating) [mm^2/s]	Kinematic viscosity at 100° C. ([3]; before heating) [mm^2/s]
did not decrease		CCCCCCCCCCC(CCCCCCCC)CC(=O)O (centres unmarked) [Example 2, 3-octyl-tridecanoic acid]	−37 °C						
		trimethylolpropane trioleate [Comparative Example 2, reference compound]	−47.5 °C	60.91	11.24	1.27	1.16	47.96	9.66
	0.10	CCCCCCCCCCC(CCCCCCCC)CC(=O)OCCCCCCCC (centres unmarked) [Example 7, octyl 3-octyl-tridecanoate]		21.74		1.04		20.08	
has the fluidity		CCCCCCCCCCC(CC=O)CCCCCCCC (centres unmarked) [Example 3, 3-octyl-tridecanal]							
	0.30	CCCCCCCC/C=C\CCCCCCCC(=O)OCCCCCCCC [Comparative Example 4, octyl oleate, reference compound]		19.89		1.29		15.33	
		trimethylolpropane tri(3-octyl-tridecanoate) [Example 4]	−50 or less ° C.	67.28	10.24	1.07	1.03	62.76	9.95
did not decrease		CCCCCCCCCCC(CCCCCCCC)CC(=O)OC (centres unmarked) [Example 1, methyl 3-octyl-tridecanoate]							
